Experimental data as given in PMC12658820, “Development of Tunable Rose Bengal-Based nanoGUMBOS as Potential Selective Chemotherapeutic Agents” (ACS Omega, 2025).
Values joined by “and” are separate entries in the source; they are usually repeats but may differ in a detail not shown here. Identical values can stand only once. “Also recorded” adds a separate entry of the source. Counter-ions that a name gives are not always drawn.

Experiments:
[1] = tested on: A549 cells; set-up: method as in numbers not shown in text; details: literature comparison, ref numbers not shown in text; cited from earlier work
[2] = Octanol/water partition experiments; type: physicochemical; details: stirred 24 h, absorbance at 562 nm, triplicate
[3] = S-TEM nanoparticle size; type: physicochemical; details: for TEM mean size / TEM PDI: 10 μM solutions of nanoGUMBOS; for TEM PDI: size deviation/size mean
Procedure: (§1) The series of RB-based nanoGUMBOS was synthesized by a simple reprecipitation method to form nanoparticles from a 10 mM RB-based GUMBOS stock solution in MeOH or DMSO. Briefly, a small aliquot of a MeOH/DMSO solution of each RB-based GUMBOS was rapidly introduced into a large volume of an aqueous cell medium (Dulbecco’s modified Eagle’s medium (DMEM), containing 10% fetal bovine serum) or water under ultrasonication. In this condition, a supersaturation of the hydrophobic RB-based GUMBOS is achieved in the aqueous system, leading to the precipitation of the RB-based GUMBOS into small particles. After that, the solution was placed on the bench and allowed to rest for a period of 15 min to allow the nucleation of the nanoparticles.
(§2) Once the incubation period concluded, DLS and S-TEM instruments were used to characterize the nanoGUMBOS. Dynamic light scattering was performed using a Malvern Zetasizer. […] Each compound was scanned at 25 °C for 10 s each scan, and the system automatically adjusted the scans needed per run. S-TEM was employed via the use of a JEOL-SEM 7600F instrument, with a vacuum pressure of 1.9E^–4 Pa, electron beam at 30,000 V, and amplified current of […], with each micrograph content being produced at 8000× magnification. ImageJ software was used for the measurements of electron micrograph images. The polydispersity index from the TEM micrograph was calculated using eq . 1 PDI=sizedeviation(σ)/sizemean(μ)

[4] = Dynamic light scattering (DLS) nanoparticle size; type: physicochemical; details: 10 μM solutions of nanoGUMBOS
Procedure: as §1, §2

[5] = tested on: HEK293 human embryonic kidney cells; assay: Confocal microscopy cell viability (DAPI-stained nuclei), HEK293; type: cell-based; details: 10 μM nanoGUMBOS; for cell viability versus control, statistical significance, HEK293: unpaired t-test
Procedure: (§3) HEK293 or A549 Cells were collected from a T-25 culture flask following a standard cell culture harvesting procedure. A549 cells were diluted in cell culture media to a concentration of roughly 1,35,000 cells/mL. From this, the cells were loaded into individual chambers on an eight-chamber microscope slide, with a cell count per chamber of roughly 60,000 cells. This slide was then placed in an incubator (37 °C and 5.0% CO2 conditions) for 24 h before treating. When the treatment began, the original cell culture media was removed from the cells, and a compound/media mixture was added to each well. A control group of only cell culture media/DMSO was prepared and applied to one chamber in the slide, with the others consisting of treatment groups, following a serial dilution from 10 μM down to 0.15625 μM. After applying the treatment, the plate was returned to the incubator for 24 h. Following the incubation period, the cells were fixed using a 4% formaldehyde solution in the PBS buffer for 15 min at room temperature. After 15 min, the cells were washed three times with PBS. Then, to prepare the cells for staining, 0.5% Triton X-100 in PBS was applied to the cells for 15 min at room temperature. This was followed by three washes with PBS again. A 3% bovine serum albumin in PBS buffer was added to the cells for 60 min to block potential nonspecific binding sites for later 4′,6-diamidino-2-phenylindole (DAPI) staining. Another three washes with PBS were applied to the cells, and the cells were stained with a 1 μg/mL solution of DAPI and a mounting solution.
(§4) The imaging method employed fluorescence microscopy for nuclear staining visualization, allowing for an accurate quantification of viable cells based on intact nuclear morphology. ImageJ software was used to count the cell nuclei in each image. To avoid background signal, the software was set to only include nuclei of 20 μm^2 or larger. Viability quantification was performed by counting intact, properly stained nuclei and expressing results as a percentage of control values, with error bars representing standard error of the mean (SEM) from triplicate experiments. Statistical analysis was performed using unpaired t-tests with significance set at p < 0.05. Each nanoGUMBOS treatment was compared independently to control within the same cell lines, representing planned pairwise comparisons rather than exploratory testing. Given this, each nanoGUMBOS formulation that reduces cell viability will be assessed for an untreated cell line. Comparisons are made within discrete experimental groups for each cell line; thus, the unpaired t-test is employed. Dose–response curves and IC50 values were generated using a four-parameter logistic regression model implemented in Python (v3.12) within Jupyter Notebook (Anaconda distribution). Curve fitting was performed with the SciPy package (version 1.13), and figures were prepared using Matplotlib (v3.9). The rationale for selecting A549 (lung carcinoma) and HEK293 (noncancerous embryonic kidney) cell lines was based on their well-characterized nature and widespread use in cancer research, representing a relevant cancer model and a noncancerous control, respectively. […] Selectivity will be calculated using eq . 5 SI=cytotoxicityofA549cells/cytotoxicityofHEK293cells

[6] = DLS ζ-potential; type: physicochemical; details: nanoGUMBOS, triplicate
Procedure: Ultraviolet–visible (UV–vis) absorption was measured between 560 and 562 nm using a Jasco V-750 spectrophotometer for the characterization of GUMBOS and nanoGUMBOS experiments. Fluorescence excitation and emission spectra were recorded using a Jasco FP-8500 fluorescence spectrophotometer. Fourier transform infrared (FT-IR) spectra were collected using a Thermo Scientific Nicolet iS20 instrument with 256 scans and a resolution of 4 cm^–1. A JEOL JSM 7600F scanning electron microscope (SEM) was employed for surface imaging and analysis of samples. A Mettler Toledo pH meter was used for measuring the pH of the various solutions. Ultrafast liquid chromatography (UFLC) coupled with a SHIMADZU electrospray ionization-mass spectrometer (ESI-MS) system was used for the characterization of the synthesized GUMBOS. ^1H and ^13C NMR spectra were collected using a JEOL ECZL-400S NMR spectrometer (400 MHz, CCRL05) equipped with a 24-position autosample changer and autotune probe. Dynamic light scattering (DLS) and ζ-potential measurements were conducted by using a Malvern Zetasizer Nano-Series system. The blood–brain barrier permeability was assessed by using a Bioassay Systems Parallel Artificial Membrane Permeability Assay-BBB Kit. Confocal fluorescence imaging was performed using a Zeiss confocal laser scanning microscope, LSM-710, equipped with an inverted Axio Observer Z1 platform and Airyscan detection. Triple-deionized water was purified by using a Millipore Milli-Q system.
as §2, with “ImageJ software was used for the measurements of electron micrograph images.” left out, “1 PDI=sizedeviation(σ)/sizemean(μ)” left out

[7] = tested on: A549 lung carcinoma cells; assay: Confocal microscopy cell viability (DAPI-stained nuclei), A549; type: cell-based, human; details: for average viability decrease, A549 / cell viability versus control, statistical significance, A549 / average cell viability, A549: 10 μM nanoGUMBOS; for cell viability versus control, statistical significance, A549: unpaired t-test; for selectivity index (SI): cytotoxicity of A549 cells / cytotoxicity of HEK293 cells; for nuclear morphology in fluorescence imaging: DAPI staining, in the dark, A549 and HEK293 imaged; for average cell viability, A549: no light activation, % of control
Procedure: as §3, §4

Compound	selectivity index [1]	K o/w (octanol–water partition constant) [2]	TEM mean size [3] [nm]	TEM PDI [3]	DLS PDI [4]	DLS mean size [4] [nm]	cell viability decrease, HEK293 ([5]; 24 h) [%]	cell viability, HEK293 ([5]; 24 h, % of control) [%]	cell viability versus control, statistical significance, HEK293 [5]	ζ-potential [6]	average viability decrease, A549 ([7]; 24 h) [%]	cell viability versus control, statistical significance, A549 [7]	selectivity index (SI) [7]	nuclear morphology in fluorescence imaging ([7]; nanoGUMBOS, 24 h)	IC50 ([7]; nanoGUMBOS, 24 h, four-parameter logistic fit, read-out: IC50 against A549 cells)	DLS mean size ([4]; listed as [Na] 2 [RB]) [nm]	average cell viability, A549 ([7]; 24 h)	nanoparticle diameter (method not stated at the place) ([3]; nanoGUMBOS by reprecipitation)	DLS mean size ([4]; listed as [TPP] 2 [RB]) [nm]
COc1cccc2c1C(=O)c1c(O)c3c(c(O)c1C2=O)C[C@@](O)(C(=O)CO)C[C@@H]3O[C@H]1C[C@H](N)[C@H](O)[C@H](C)O1 [Doxorubicin]	1.5	–	–	–	–	–	–	–	–	–	–	–	–	–	–	–	–	–	–
CCCCCCCCCCCCn1cc[n+](C)c1.CCCCCCCCCCCCn1cc[n+](C)c1.O=C([O-])c1c(Cl)c(Cl)c(Cl)c(Cl)c1-c1c2cc(I)c(=O)c(I)c-2oc2c(I)c([O-])c(I)cc12 [[C12MIm]2[RB], 1-dodecyl-3-methylimidazolium Rose Bengal]	–	2.5	70.31 ± 16.43	0.23	0.37	59.87 ± 8.23	63.1	47.1	statistically significant reductions in cell viability; also recorded: statistically significant decrease in cell viability	≈ −30 mV	77.4	statistically significant reductions in cell viability; also recorded: statistically significant decrease in cell viability	2.1	altered nuclear morphology consistent with apoptotic processes	2160 nM and 2200 nM	–	–	–	–
O=C(O)c1c(Cl)c(Cl)c(Cl)c(Cl)c1-c1c2cc(I)c(=O)c(I)c-2oc2c(I)c(O)c(I)cc12 [[Na]2[RB], Rose Bengal disodium salt, reference compound]	–	4.5	268.62 ± 74.02	0.28	0.58	230.9	–	–	no statistically significant difference	−18.4 mV	–	no statistically significant difference	–	minimal cellular changes	–	230.90 ± 17.89	86.7%	–	–
O=C([O-])c1c(Cl)c(Cl)c(Cl)c(Cl)c1-c1c2cc(I)c(=O)c(I)c-2oc2c(I)c([O-])c(I)cc12.c1ccc([P+](c2ccccc2)(c2ccccc2)c2ccccc2)cc1.c1ccc([P+](c2ccccc2)(c2ccccc2)c2ccccc2)cc1 [[TPP]2[RB], tetraphenylphosphonium Rose Bengal]	–	2.8	45.33 ± 11.53	0.24	0.22	40.66	–	–	statistically significant reductions in cell viability; also recorded: statistically significant decrease in cell viability	approximately −30 mV	57.2	statistically significant reductions in cell viability; also recorded: statistically significant decrease in cell viability	1.5	altered nuclear morphology consistent with apoptotic processes	–	–	below 50%	below 100 nm	40.66 ± 3.33
N.N.[Cl][Pt][Cl] [cisplatin]	under 2	–	–	–	–	–	–	–	–	–	–	–	–	–	–	–	–	–	–
tetrabutylphosphonium Rose Bengal [[TBP]2[RB]]	–	–	–	–	–	–	–	–	no statistically significant difference	–	–	no statistically significant difference	–	minimal cellular changes	–	–	–	–	–
